Data taken from patent US20250082648A1, “COMPOSITIONS AND METHODS FOR ENHANCING KRAS INHIBITOR OR SHP2 INHIBITOR EFFICACY” (New York University, priority 2023, published 2025).

Columns and labels:
[1] = system: NSCLC lines; experiment: Cell viability and proliferation assays (CCK8, trypan blue counts, Bliss analysis); assay type: cell-based, human; conditions: for effect on MRTX-849 action: multiple NSCLC lines, including those not STK11 and/or KEAP1 mutant
Description: Cell viability and proliferation assays. […] Media (including inhibitors) were replaced every two days. Dose-response curves were generated using the […] Cell Counting Kit-8 (CCK8) assay (Enzo, ALX-850-039-KI02). Three hours after addition of CCK-8 reagent to cells, A450 was recorded using a FlexStation 3 multi-mode microplate reader according to the manufacturer's instructions. IC50s were calculated with GraphPad Prism. For all other proliferation assays, cells were harvested and stained with trypan blue (#T8154, Sigma-Aldrich), and viable (trypan blue-excluding) cells were quantified with a Countless II automated cell counter (Invitrogen).

[2] = system: KCL cells; experiment: Cell viability and proliferation assays (CCK8, trypan blue counts); conditions: combined with MRTX-849 at its IC50 dose
[3] = system: YAP; experiment: YAP1 immunofluorescence (nuclear localization); assay type: cell-based, human
Description: Immunofluorescence. […]. Cells were then fixed in 4% paraformaldehyde for 10 minutes at room temperature, rinsed three times for 5 min. each in PBS, and permeabilized in 0.1% Triton X-100/5% FBS in PBS for a 1 hr at RT. […] Nuclei were stained with DAPI (BioLegend, Cat #: 422801) for 5 min, and slides were washed two more times in PBS before mounting with Fluorescence Mounting Medium (Dako, Cat #: S3023). Images were acquired with a Zeiss 880 Laser Scanning Confocal Microscope (Axio Observer) equipped with Zen 3.0 software (ZEN blue, Carl Zeiss Inc.) and were processed by Fiji software (NIH).

[4] = system: KCL lung tumors; experiment: KCL GEMM (KRAS G12C; Stk11 fl/fl, Ad-Cre) long-term treatment, MRI monitoring; conditions: MRTX849 100 mg/kg/d plus SHP099 75 mg/kg/d; resistant tumors soon recurred
[5] = system: KCL syngeneic tumor grafts; experiment: KCL syngeneic tumor grafts in C57BL/6J mice; assay type: in vivo, mouse; conditions: MRTX-849 100 mg/kg/d, 30 days of treatment; VT104 10 mg/kg/d
Description: (§1) For syngeneic tumor experiments, KCL cells (10^6 in 200 ml PBS) were injected subcutaneously into the right flanks of male C57BL/6J mice (Jackson Laboratory). For xenografts, H2030 cells (5×10^6) were injected subcutaneously into the right flanks of Crl:NU-Foxn1nu/nu mice (Charles River, #088) with a 1:1 mixture of cell suspension in Matrigel (Corning, Cat #354234). […] Mice were weighed two times a week prior to dosing and throughout the study. Tumors were measured in 2 dimensions (length and width) twice a week and volumes (mm^3) were calculated as (length×width^2)/2).

[6] = system: H2030 cell-derived xenografts; experiment: H2030 cell-derived xenografts in nu/nu mice; assay type: in vivo, mouse; conditions: MRTX-849 100 mg/kg/d, 30 days of treatment; VT104 10 mg/kg/d
Description: as §1

[7] = system: YAP1; experiment: YAP1 and DAPI immunofluorescence (YAP1 nuclear localization); assay type: cell-based
Excerpt: […]. […] Datasets (color-coded) used for pathway analysis are indicated at right with the sizes of the circles indicating statistical significance. […]. All immunofluorescence images are representative of three independent experiments. Scale bar=20 μm.
. FIG. 4B is a bubble plot showing pathways (p<0.05) enriched in SL genes (FDR<0.1). Datasets used for analysis are color-coded at right; the sizes of the circles indicate significance level. FIG. 4C is a Circos plot illustrating the overlap of SL genes (FDR<0.1) between lines. […]. FIGS. 10C-10D show quantification of YAP nuclear localization in presence of ROCK-I, in data from FIGS. 3G-3H. *p<0.05, 1-way ANOVA with Tukey's multiple comparisons test.

[8] = system: H2122 cells; conditions: individual H2122 data (top); MRTX-849 vs vehicle 48 hr
Description: Bulk RNA-seq was performed on total RNA from cell lines or isolated tumor cells by the PCC Genome Technology Center Shared Resource (GTC). Libraries were prepared with the Illumina TruSeq Stranded Total RNA Sample Preparation Kit and sequenced on an Illumina NovaSeq 6000 platform utilizing 150-bp paired end reads. Sequencing data were de-multiplexed and transformed into FASTQ format by using Illumina bcl2fastq software. […] Briefly, sequencing results were transformed into FASTQ format by using Illumina bcl2fastq software. Reads were adapter- and quality-trimmed using Trimmomatic before alignment with the human or mouse genome using the splice-aware STAR aligner. Using featureCounts (49), counts for each gene were created based on the number of aligned reads overlapping its exons. These counts were standardized and subsequently evaluated for differential expression via the DESeq2 R package, using negative binomial generalized linear models. Lastly, the Enrichr tool was employed for pathway analysis of the bulk RNA-seq data.

[9] = preliminary results; cited from earlier work

With C[C@H](NC(=O)c1ccc2c(-c3ccc(C(F)(F)F)cc3)cccc2c1)c1ccccn1 [VT-104] the “effect on efficacy of combination MRTX849/TNO-155” value ([1]; NSCLC lines, vs single agent or two drug-combinations, all at reduced doses) was “increased the efficacy”, the “effect on MRTX-849 action” value [1] was “synergistically augmented” and the “IC50 in YAP1 over-expressing cells” value [2] was “higher”.

In the case of C[C@@H](N)[C@H]1CC[C@H](C(=O)Nc2ccncc2)CC1 [Y27632], the “effect of addition on MRTX-849 efficacy” value ([1]; two cell lines tested) is reported as “increased MRTX-849 efficacy”, the “YAP nuclear translocation induced by MRTX treatment” value ([3]; MRTX treatment for 24 hr plus ROCK inhibitor) is reported as “inhibited” and the “YAP nuclear translocation induced by MRTX treatment” value ([3]; after 48h of treatment plus ROCK inhibitor) is reported as “to an even greater extent”.

With CC1(N)CCN(c2cnc(-c3cccc(Cl)c3Cl)c(N)n2)CC1 [SHP099] the “response of tumors recurred after prolonged MRTX-849 treatment” value [4] was “partial responses”.

In the case of C=CC(=O)N1C[C@@H](n2cc(-c3cccnc3)nn2)[C@H](OCc2ccc(C(F)(F)F)cc2)C1 [MYF-03-69], the “effect on MRTX-849 action” value [1] is reported as “synergistically augmented”.

In the case of C=C(F)C(=O)N1C[C@@H](Nc2ncccn2)[C@H](OCc2ccc(C(F)(F)F)cc2)C1 [MYF-03-176], the “IC50 in YAP1 over-expressing cells” value [2] is reported as “higher”.

With C[C@H](NC(=O)c1ccc2c(-c3ccc(C(F)(F)F)cc3)cccc2c1)c1ccccn1 [VT104] the tumor response [5] was “minimal” and the tumor response [6] was “minimal”.

With C=C(F)C(=O)N1CCN(c2nc(OC[C@@H]3CCCN3C)nc3c2CCN(c2cccc4cccc(Cl)c24)C3)C[C@@H]1CC#N [MRTX-849, adagrasib] the “nuclear translocation of YAP” value ([7]; H2030, H2122, H23, MiaPaca2 cells, MRTX-849 at IC50) was “induces RHO/ROCK-dependent nuclear translocation of YAP”, the “levels of nuclear YAP” value ([3]; H2030 cells) was “increased” and the “time at which nuclear YAP increase begins” value ([3]; H2030 cells) was 4 h. The “time at which nuclear YAP peaks” value ([3]; H2030 cells) was 24 to 48 h and the “PSAP RNA-seq, column median2” value [8] was 0.7802.

For C[C@H](CO)NC(=O)c1ccc2c(Oc3ccc(C(F)(F)F)cc3)cccc2c1 [VT3989], the “safety in phase 1 clinical trial” value [9] is given as “safe with manageable toxicity”.

For C[C@@H](N)[C@H]1CC[C@H](C(=O)Nc2ccncc2)CC1 [Y-27632], the “MRTX-849-induced YAP1 nuclear localization” value ([7]; NSCLC lines, MRTX-849 at IC50 with or without Y-27632 (10 μM)) was “impairs MRTX-849-induced YAP1 nuclear localization”.

With C[C@@H](NC(=O)c1ccc2c(-c3ccc(C(F)(F)F)cc3)cccc2c1)c1cccc(N)n1 [VT106] the “effect on drug sensitivity” value ([1]; inactive analog control) was “no effect”.
